US7880007B2, “Bicyclic substituted phenyl piperidine modulators of muscarinic receptors” (Vertex Pharmaceuticals Incorporated, priority 2004, dated 2011)

Assays:
Format in all cases: cell-based
M1 muscarinic receptor = biological target: T1, M1 muscarinic receptor (Homo sapiens, UniProt P11229); experiment: Functional mobilization of intracellular calcium (FLIPR), M1-CHO cells; conditions: for Emax: 100% efficacy = maximum response obtained with the Carbachol control; for M1 Activity: M1-CHO cells, calcium mobilization (FLIPR)
T1 construct: expressed in transfected cells; host or cells: CHO (M1-CHO)
T1 sequence (P11229 1-460): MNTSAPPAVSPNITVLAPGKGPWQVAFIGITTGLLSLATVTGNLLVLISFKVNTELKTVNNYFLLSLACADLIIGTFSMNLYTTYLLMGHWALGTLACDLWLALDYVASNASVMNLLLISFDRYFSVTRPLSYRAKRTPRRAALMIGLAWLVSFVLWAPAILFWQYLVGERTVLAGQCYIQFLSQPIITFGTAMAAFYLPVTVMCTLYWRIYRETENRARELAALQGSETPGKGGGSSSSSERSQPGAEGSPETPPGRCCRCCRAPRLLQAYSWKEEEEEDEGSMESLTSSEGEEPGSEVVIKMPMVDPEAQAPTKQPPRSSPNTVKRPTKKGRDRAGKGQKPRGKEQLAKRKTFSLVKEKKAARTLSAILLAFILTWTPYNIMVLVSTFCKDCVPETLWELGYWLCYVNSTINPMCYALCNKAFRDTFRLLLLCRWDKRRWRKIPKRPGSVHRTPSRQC
Outline: (§1)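 FLIPR fluorescence (ex 488, em 540 nm) recorded 60 sec after compound addition to dye-loaded CHO cells. Agonist mode: compound alone. Antagonist mode: 15 min compound pre-incubation, then carbachol at EC80, or co-application. Efficacy expressed as % of maximal carbachol response.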

M4 muscarinic receptor = biological target: T2, M4 muscarinic receptor (Homo sapiens, UniProt P08173); experiment: Functional mobilization of intracellular calcium (FLIPR), M4-CHO cells; conditions: for Emax: 100% efficacy = maximum response obtained with the Carbachol control; for M4 Activity: M4-CHO cells, calcium mobilization (FLIPR)
T2 construct: expressed in transfected cells; host or cells: CHO (M4-CHO)
T2 sequence (P08173 1-479): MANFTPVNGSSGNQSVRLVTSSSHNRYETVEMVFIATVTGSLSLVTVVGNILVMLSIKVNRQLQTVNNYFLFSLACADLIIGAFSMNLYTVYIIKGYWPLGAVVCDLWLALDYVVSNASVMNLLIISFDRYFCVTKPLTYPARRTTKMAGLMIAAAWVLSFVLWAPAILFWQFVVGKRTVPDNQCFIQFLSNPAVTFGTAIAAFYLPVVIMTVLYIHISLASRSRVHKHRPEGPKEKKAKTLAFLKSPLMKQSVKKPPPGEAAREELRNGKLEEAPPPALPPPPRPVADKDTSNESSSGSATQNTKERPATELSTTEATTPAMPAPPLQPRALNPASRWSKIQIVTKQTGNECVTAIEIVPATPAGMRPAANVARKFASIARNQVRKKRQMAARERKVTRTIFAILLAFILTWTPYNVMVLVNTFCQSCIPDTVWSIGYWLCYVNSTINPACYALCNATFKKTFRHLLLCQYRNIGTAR
Outline: as §1

M3 muscarinic receptor = biological target: T3, M3 muscarinic receptor (Homo sapiens, UniProt P20309); experiment: Functional mobilization of intracellular calcium (FLIPR), M3-CHO cells; conditions: for Emax: 100% efficacy = maximum response obtained with the Carbachol control; for M3 Activity: M3-CHO cells, calcium mobilization (FLIPR)
T3 construct: expressed in transfected cells; host or cells: CHO (M3-CHO)
T3 sequence (P20309 whole entry): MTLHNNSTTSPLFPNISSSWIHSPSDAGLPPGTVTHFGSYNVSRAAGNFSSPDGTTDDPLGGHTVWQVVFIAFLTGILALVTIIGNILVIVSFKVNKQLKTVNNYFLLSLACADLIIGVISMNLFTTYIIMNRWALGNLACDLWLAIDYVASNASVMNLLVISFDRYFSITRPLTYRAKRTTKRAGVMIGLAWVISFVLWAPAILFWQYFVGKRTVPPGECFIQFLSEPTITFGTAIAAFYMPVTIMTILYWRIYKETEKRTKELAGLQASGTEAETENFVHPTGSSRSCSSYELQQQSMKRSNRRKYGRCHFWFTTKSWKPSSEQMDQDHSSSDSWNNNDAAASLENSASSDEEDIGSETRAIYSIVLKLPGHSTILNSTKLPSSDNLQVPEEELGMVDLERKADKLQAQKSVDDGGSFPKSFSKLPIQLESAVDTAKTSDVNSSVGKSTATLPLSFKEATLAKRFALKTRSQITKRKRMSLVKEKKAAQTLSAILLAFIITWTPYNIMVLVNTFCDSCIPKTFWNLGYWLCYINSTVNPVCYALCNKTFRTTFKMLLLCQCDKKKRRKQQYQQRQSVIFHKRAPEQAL
Outline: as §1

M2 muscarinic receptor = biological target: T4, M2 muscarinic receptor (Homo sapiens, UniProt P08172); experiment: Functional mobilization of intracellular calcium (FLIPR), M2-CHO cells; conditions: for Emax: 100% efficacy = maximum response obtained with the Carbachol control; for M2 Activity: M2-CHO cells, calcium mobilization (FLIPR)
T4 construct: expressed in transfected cells; host or cells: CHO (M2-CHO)
T4 sequence (P08172 1-466): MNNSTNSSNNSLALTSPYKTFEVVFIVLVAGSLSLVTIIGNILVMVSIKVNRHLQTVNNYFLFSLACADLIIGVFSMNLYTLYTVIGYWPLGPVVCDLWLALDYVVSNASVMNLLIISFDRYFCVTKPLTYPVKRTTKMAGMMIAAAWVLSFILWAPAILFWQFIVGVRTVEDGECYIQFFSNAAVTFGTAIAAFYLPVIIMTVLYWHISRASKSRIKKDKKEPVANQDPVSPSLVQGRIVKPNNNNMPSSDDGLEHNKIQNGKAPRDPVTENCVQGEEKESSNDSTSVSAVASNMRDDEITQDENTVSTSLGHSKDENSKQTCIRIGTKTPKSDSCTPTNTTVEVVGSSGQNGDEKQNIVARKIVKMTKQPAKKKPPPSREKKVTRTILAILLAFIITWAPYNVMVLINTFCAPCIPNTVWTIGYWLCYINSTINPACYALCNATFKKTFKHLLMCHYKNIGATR
Outline: as §1

Row | SMILES | Emax (M1 muscarinic receptor) [%] | Emax (M4 muscarinic receptor) [%] | Emax (M3 muscarinic receptor) [%] | Emax (M2 muscarinic receptor) [%] | M1 Activity (M1 muscarinic receptor) | M4 Activity (M4 muscarinic receptor) | M3 Activity (M3 muscarinic receptor) | M2 Activity (M2 muscarinic receptor)
1 | CCOC(=O)N1CCC(CN2CCC(O)(c3cc(F)ccc3OC)CC2)CC1 [Compound 189] | 25 to 100 | 25 to 100 | < 25 | < 25 | +++ (activity was measured to be less than 1.0 μM) | +++ (activity was measured to be less than 1.0 μM) | + (activity was measured to be greater than 5.0 μM) | + (activity was measured to be greater than 5.0 μM)
2 | c1ccc(C2CCN([C@H]3C[C@H]4CC[C@H]3C4)CC2)c(-c2ccc3c(c2)OCO3)c1 [Compound 195] | 25 to 100 | 25 to 100 | < 25 | < 25 | + (activity was measured to be greater than 5.0 μM) | +++ (activity was measured to be less than 1.0 μM) | + (activity was measured to be greater than 5.0 μM) | + (activity was measured to be greater than 5.0 μM)
3 | COc1ccccc1C1(O)CCN([C@H]2C[C@H]3CC[C@H]2C3)CC1O (stereo partly drawn) [Compound 197] | < 25 | 25 to 100 | < 25 | < 25 | + (activity was measured to be greater than 5.0 μM) | + (activity was measured to be greater than 5.0 μM) | + (activity was measured to be greater than 5.0 μM) | + (activity was measured to be greater than 5.0 μM)
4 | CCOC(=O)N1C2CCC1CC(N1CCC(c3cc(F)cc(F)c3OC)CC1)C2 (stereo not drawn) [Compound 198] | 25 to 100 | 25 to 100 | < 25 | < 25 | ++ (activity was measured to be from 1.0 μM to 5.0 μM) | +++ (activity was measured to be less than 1.0 μM) | + (activity was measured to be greater than 5.0 μM) | + (activity was measured to be greater than 5.0 μM)
5 | COc1ccccc1C1CCN(C2CCCC3(CCCCC3)C2)CC1 (stereo not drawn) [Compound 199] | < 25 | < 25 | < 25 | < 25 | + (activity was measured to be greater than 5.0 μM) | + (activity was measured to be greater than 5.0 μM) | + (activity was measured to be greater than 5.0 μM) | + (activity was measured to be greater than 5.0 μM)
6 | CCOC(=O)N1C2CCC1CC(N1CCC(c3ccccc3OC)CC1)C2 (stereo not drawn) [Compound 202] | 25 to 100 | 25 to 100 | < 25 | 25 to 100 | +++ (activity was measured to be less than 1.0 μM) | +++ (activity was measured to be less than 1.0 μM) | + (activity was measured to be greater than 5.0 μM) | ++ (activity was measured to be from 1.0 μM to 5.0 μM)
7 | Fc1ccc(F)c(C2CCN(C3C[C@H]4CC[C@H]3C4)CC2)c1 (stereo partly drawn) [Compound 205] | 25 to 100 | 25 to 100 | < 25 | 25 to 100 | ++ (activity was measured to be from 1.0 μM to 5.0 μM) | +++ (activity was measured to be less than 1.0 μM) | + (activity was measured to be greater than 5.0 μM) | ++ (activity was measured to be from 1.0 μM to 5.0 μM)
8 | COc1ccc(F)cc1C1CCN(C2CC3CCC(C3)C2)CC1 (stereo not drawn) [Compound 207] | 25 to 100 | 25 to 100 | < 25 | < 25 | +++ (activity was measured to be less than 1.0 μM) | +++ (activity was measured to be less than 1.0 μM) | + (activity was measured to be greater than 5.0 μM) | + (activity was measured to be greater than 5.0 μM)
9 | COc1ccc(Cl)cc1C1CCN(C2CC3CCC2C3)CC1 (stereo not drawn) [Compound 209, 1-(bicyclo[2.2.1]heptan-2-yl)-4-(5-chloro-2-methoxyphenyl)-piperidine] | 25 to 100 | 25 to 100 | < 25 | 25 to 100 | ++ (activity was measured to be from 1.0 μM to 5.0 μM) | +++ (activity was measured to be less than 1.0 μM) | + (activity was measured to be greater than 5.0 μM) | ++ (activity was measured to be from 1.0 μM to 5.0 μM)

The next lines start with results.

Row | Emax (M1 muscarinic receptor) [%] | Emax (M4 muscarinic receptor) [%] | Emax (M3 muscarinic receptor) [%] | Emax (M2 muscarinic receptor) [%] | SMILES | M1 Activity (M1 muscarinic receptor) | M4 Activity (M4 muscarinic receptor) | M3 Activity (M3 muscarinic receptor) | M2 Activity (M2 muscarinic receptor)
10 | < 25 | 25 to 100 | < 25 | < 25 | COc1ccc(-c2ccc(CC#N)cc2)cc1C1CCN(C2C[C@H]3CC[C@H]2C3)CC1 (stereo partly drawn) [Compound 190] | + (activity was measured to be greater than 5.0 μM) | + (activity was measured to be greater than 5.0 μM) | + (activity was measured to be greater than 5.0 μM) | + (activity was measured to be greater than 5.0 μM)
11 | 25 to 100 | 25 to 100 | < 25 | < 25 | COc1ccc(-c2ccc(C(C)(C)C#N)cc2)cc1C1CCN(C2CCOCC2)CC1 [Compound 192] | + (activity was measured to be greater than 5.0 μM) | + (activity was measured to be greater than 5.0 μM) | + (activity was measured to be greater than 5.0 μM) | + (activity was measured to be greater than 5.0 μM)
12 | 25 to 100 | 25 to 100 | < 25 | 25 to 100 | COc1ccc(F)cc1C1CCN(C2CCOCC2)CC1 [Compound 193] | ++ (activity was measured to be from 1.0 μM to 5.0 μM) | +++ (activity was measured to be less than 1.0 μM) | + (activity was measured to be greater than 5.0 μM) | + (activity was measured to be greater than 5.0 μM)
13 | < 25 | 25 to 100 | < 25 | < 25 | CNC(=O)c1ccc(-c2ccc(OC)c(C3CCN(C4CC5CCC(C5)C4)CC3)c2)cc1 (stereo not drawn) [Compound 196] | + (activity was measured to be greater than 5.0 μM) | +++ (activity was measured to be less than 1.0 μM) | + (activity was measured to be greater than 5.0 μM) | + (activity was measured to be greater than 5.0 μM)
14 | 25 to 100 | 25 to 100 | < 25 | 25 to 100 | COc1ccc(F)cc1C1CCN(C2CCCCC2)CC1 [Compound 200] | +++ (activity was measured to be less than 1.0 μM) | +++ (activity was measured to be less than 1.0 μM) | + (activity was measured to be greater than 5.0 μM) | ++ (activity was measured to be from 1.0 μM to 5.0 μM)
15 | < 25 | 25 to 100 | < 25 | < 25 | COc1ccc(-c2cc(F)ccc2F)cc1C1CCN([C@H]2C[C@H]3CC[C@H]2C3)CC1 [Compound 206] | + (activity was measured to be greater than 5.0 μM) | + (activity was measured to be greater than 5.0 μM) | + (activity was measured to be greater than 5.0 μM) | + (activity was measured to be greater than 5.0 μM)
